Measurements taken from patent US10092515B2, “Liposomal formulations of polymyxin B and uses thereof” (University of Houston System, priority 2012, dated 2018).

Assays:
[1] = Onset of nephrotoxicity (serum creatinine >=2-fold baseline) at escalating daily doses; type: in vivo, Sprague-Dawley rats; details: rats
Description: Female Sprague-Dawley rats (225 to 250 g) (Harlan, Indianapolis, Ind.) were used. The rats received food and water ad libitum. All animals were cared for in accordance with the highest humane and ethical standards, as approved by the Institutional Animal Care and Use Committee (IACUC) of the University of Houston. The jugular veins of selected animals were cannulated to facilitate intravenous drug administration.
Prior to each experiment, polymyxin B for injection (USP) was reconstituted with sterile water for injection (USP) and diluted to achieve the desired concentration. The reconstituted drug solution was stored at −80° C. in aliquots and thawed immediately before dosing.
To mimic a clinical course of polymyxin B treatment, three groups of rats (n=13 each) were administered escalating dose levels of polymyxin B (5 mg/kg, 10 mg/kg, and 20 mg/kg, respectively) once daily subcutaneously for up to 7 days. Blood samples (approximately 200 μl) were drawn via the tail vein at baseline and on a daily basis (before dosing when applicable). Blood was allowed to clot on ice, and serum was separated by centrifugation at 4,000×g for 10 min. Serum samples (100 μl) were further assayed for creatinine levels by use of a clinical chemistry analyzer (Piccolo Xpress; Abaxis, Inc., Union City, Calif.). A significant elevation in serum creatinine (≥2-fold […] the baseline level) was set as the endpoint for nephrotoxicity. Kaplan-Meier survival analysis and a log rank (Mantel-Cox) test were used to compare the times of onset of nephrotoxicity among various groups. Right censoring was used if the nephrotoxicity endpoint was not observed by day 7.

[2] = Renal tissue concentration of polymyxin B at escalating dose levels; type: in vivo, Sprague-Dawley rats; details: rats, 24 h after first dose, summed components
Experimental: (§1) A validated ultraperformance liquid chromatography-tandem mass spectrometry (UPLC/MS-MS) method was modified to determine the concentrations of polymyxin B in rat serum and renal tissues, as previously described (32). The lower limit of quantification (LLOQ) was 50 ng/ml for all the major components of polymyxin B in serum as well as the renal tissue homogenate.
To determine the renal tissue concentration of polymyxin B, three rats from each dosing group were randomly selected and sacrificed at 24 h after the first dose; kidneys were harvested and homogenized. A fixed time point was selected to avoid any potential confounding due to different cumulative doses received when nephrotoxocity was observed. The concentrations of the major components of polymyxin B (polymyxin B1, polymyxin B2, polymyxin B3, and isoleucine polymyxin B1) were determined in […] as described above.
For the purpose of drug quantification in the renal tissue homogenates, the estimated concentrations were divided by the total weight of the kidney and the final concentrations were expressed per gram of renal tissue (in micrograms/gram). The summed concentrations of individual components were used to estimate the overall renal drug exposure (33). One-way analysis of variance (ANOVA) and then post hoc Tukey's test were used to compare the mean renal tissue concentrations among the dosing groups, and P values of <0.05 were considered significant.

[3] = Polymyxin B pharmacokinetics in megalin-shedding rats (serum and renal tissue); type: in vivo, Sprague-Dawley rats; details: for AUC0-∞, renal tissue/AUC0-∞, serum ratio / AUC0-∞, renal tissue / AUC0-∞, serum / renal tissue polymyxin B concentration (3 h postdosing): rats, 3 mg/kg IV
Experimental: as §1
To study the impact of sodium maleate pretreatment on systemic/renal exposure of polymyxin B, the rats were divided into two groups (n=13 each). Animals in both control and experimental groups were administered a single intravenous dose of 3 mg/kg of polymyxin B sulfate (USP). The intravenous route of polymyxin B administration was preferred to avoid any interference with drug absorption at the injection site. In addition, the animals in the experimental group were given 400 mg/kg of sodium maleate intraperitoneally 3 to 6 h prior to polymyxin B administration. Serum samples were obtained at 1.5, 3, 4.5, 6, and 7.5 h after polymyxin B dosing. In addition, the rats were sacrificed to harvest the kidneys at 3, 6, and 24 h (n=3 at each time point) postdosing. Polymyxin B concentrations in serum and renal tissue samples were assayed by the validated UPLC-MS/MS method detailed above.
The mean concentrations of polymyxin B in serum, as well as in renal tissue samples, at each time point were used. A modified two-compartment model (data not shown) was used to cofit the serum/renal tissue concentration-time profiles using ADAPT 5 (University of Southern California, Los Angeles, Calif.). Using the best-fit parameters, the AUC0-∞ was estimated by integrating instantaneous concentrations with respect to time. The AUC0-∞, renal tissue/AUC0-∞, serum ratio was used as an index to quantitatively assess preferential accumulation of polymyxin B in renal tissue.
To further examine whether the effect of sodium maleate on the renal accumulation of polymyxin B is transient, three additional rats were given a single dose of 400 mg/kg of sodium maleate intraperitoneally. Two weeks later, the animals were given a single dose of 3 mg/kg of polymyxin B intravenously. The rats were sacrificed at 3 h postdosing; kidneys were harvested and homogenized. Polymyxin B concentrations in renal tissue samples were assayed by the validated UPLC-MS/MS method.

[4] = system: multiple drug resistant (MDR) Pseudomonas aeruginosa strain (PA 9019); details: PA 9019, previously determined; cited from earlier work
[5] = system: P. aeruginosa ATCC 27853 (PA 27853); details: PA 27853, previously determined; cited from earlier work
[6] = experimental group: 400 mg/kg sodium maleate i.p. 3 to 6 h before

Polymyxin B
animals that reached the predefined nephrotoxicity endpoint by day 7 ([1]; 5 mg/kg once daily subcutaneously up to 7 days): none
animals that reached the nephrotoxicity endpoint within the first 48 h of treatment ([1]; 10 mg/kg daily subcutaneously): 1 out of 10
animals that reached the nephrotoxicity endpoint within the first 48 h of treatment ([1]; 20 mg/kg daily subcutaneously): 8 out of 10
animals that reached the predefined nephrotoxicity endpoint (serum creatinine >=2-fold baseline) ([1]; 20 mg/kg once daily subcutaneously up to 7 days): 10 out of 10
concentration of polymyxin B in renal tissue ([2]; 5-mg/kg dosing group): 3.6 ± 0.4 µg/g
concentration of polymyxin B in renal tissue ([2]; 10-mg/kg dosing group): 9.9 ± 1.5 µg/g
concentration of polymyxin B in renal tissue ([2]; 20-mg/kg dosing group): 21.7 ± 4.8 µg/g
attenuation of polymyxin B exposure in renal tissue after pretreatment with maleate ([3]; megalin-shedding rats vs control): approximately 40%
AUC0-∞, renal tissue/AUC0-∞, serum ratio ([3]; control group): 19.1
AUC0-∞, renal tissue ([3]; control group (no maleate)): 211900 ng·h/mL
AUC0-∞, serum ([3]; control group (no maleate)): 10400 ng·h/mL
renal tissue polymyxin B concentration (3 h postdosing) ([3]; control rats): 11.45 µg/g
AUC0-∞, renal tissue/AUC0-∞, serum ratio ([3]; experimental group (maleate pretreatment)): 11.6
AUC0-∞, renal tissue [3, 6]: 121000 ng·h/mL
AUC0-∞, serum [3, 6]: 11100 ng·h/mL
renal tissue polymyxin B concentration (3 h postdosing) ([3]; sodium maleate 400 mg/kg given 2 weeks earlier): 11.08 µg/g
minimum inhibitory concentration (MIC) [4]: 4 µg/mL
minimum inhibitory concentration (MIC) [5]: 2 µg/mL
